According to patent publication EP4745137A1 (Gluetacs Therapeutics (Shanghai) Co., Ltd., priority 2023, dated 2025):
pIC50: −log10 of the molar value.

Tests used:
WEE1 = target: T1, WEE1 (Homo sapiens, UniProt P30291+Q96SW2); test: Western-blot assay of substrate protein degradation in hPBMCs, WEE1; format: cell-based; conditions: 24 hours of compound treatment, compounds tested at 50 nM and 500 nM (concentration of the table not stated)
T1 construct: endogenous in cells; host or cells: hPBMCs (Milecell Biotechnologies)

IKZF1 = target: T2, IKZF1 (Homo sapiens, UniProt Q13422+Q96SW2); test: Western-blot assay of substrate protein degradation in hPBMCs, IKZF1; format: cell-based; conditions: 24 hours of compound treatment, compounds tested at 50 nM and 500 nM (concentration of the table not stated)
T2 construct: endogenous in cells; host or cells: hPBMCs (Milecell Biotechnologies)

IKZF2 = target: T3, IKZF2 (Homo sapiens, UniProt Q96SW2+Q9UKS7); test: Western-blot assay of substrate protein degradation in hPBMCs, IKZF2; format: cell-based; conditions: 24 hours of compound treatment, compounds tested at 50 nM and 500 nM (concentration of the table not stated)
T3 construct: endogenous in cells; host or cells: hPBMCs (Milecell Biotechnologies)

IKZF3 = target: T4, IKZF3 (Homo sapiens, UniProt Q96SW2+Q9UKT9); test: Western-blot assay of substrate protein degradation in hPBMCs, IKZF3; format: cell-based; conditions: 24 hours of compound treatment, compounds tested at 50 nM and 500 nM (concentration of the table not stated)
T4 construct: endogenous in cells; host or cells: hPBMCs (Milecell Biotechnologies)

CK1α = target: T5, CK1α (Homo sapiens, UniProt P48729+Q96SW2); test: Western-blot assay of substrate protein degradation in hPBMCs, CK1α; format: cell-based; conditions: 24 hours of compound treatment, compounds tested at 50 nM and 500 nM (concentration of the table not stated)
T5 construct: endogenous in cells; host or cells: hPBMCs (Milecell Biotechnologies)

GSPT1 = target: T6, GSPT1 (Homo sapiens, UniProt P15170+Q96SW2); test: Western-blot assay of substrate protein degradation in hPBMCs, GSPT1; format: cell-based; conditions: 24 hours of compound treatment, compounds tested at 50 nM and 500 nM (concentration of the table not stated)
T6 construct: endogenous in cells; host or cells: hPBMCs (Milecell Biotechnologies)

[1] = target: T7, human Cereblon WT GST-tagged protein (Homo sapiens, UniProt Q96SW2); test: CRBN-binding affinity by HTRF (CEREBLON BINDING kit); conditions: HTRF inhibitory activity, CEREBLON BINDING kit; read-out: HTRF IC50
T7 construct: purchased CISBIO 64BDCRBNPEH
T7 sequence (Q96SW2 whole entry): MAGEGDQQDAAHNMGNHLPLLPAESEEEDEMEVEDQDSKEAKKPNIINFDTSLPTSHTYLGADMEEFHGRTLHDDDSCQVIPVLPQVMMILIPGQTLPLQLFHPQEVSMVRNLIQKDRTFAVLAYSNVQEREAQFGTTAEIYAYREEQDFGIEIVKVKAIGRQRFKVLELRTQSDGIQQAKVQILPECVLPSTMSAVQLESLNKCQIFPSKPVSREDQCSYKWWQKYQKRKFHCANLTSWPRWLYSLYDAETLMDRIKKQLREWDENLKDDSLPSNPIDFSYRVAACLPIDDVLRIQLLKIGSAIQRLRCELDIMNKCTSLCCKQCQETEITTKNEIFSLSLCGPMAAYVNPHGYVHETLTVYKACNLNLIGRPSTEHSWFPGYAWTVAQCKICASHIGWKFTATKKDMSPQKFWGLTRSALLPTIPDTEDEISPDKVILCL

T2 sequence (Q13422 whole entry): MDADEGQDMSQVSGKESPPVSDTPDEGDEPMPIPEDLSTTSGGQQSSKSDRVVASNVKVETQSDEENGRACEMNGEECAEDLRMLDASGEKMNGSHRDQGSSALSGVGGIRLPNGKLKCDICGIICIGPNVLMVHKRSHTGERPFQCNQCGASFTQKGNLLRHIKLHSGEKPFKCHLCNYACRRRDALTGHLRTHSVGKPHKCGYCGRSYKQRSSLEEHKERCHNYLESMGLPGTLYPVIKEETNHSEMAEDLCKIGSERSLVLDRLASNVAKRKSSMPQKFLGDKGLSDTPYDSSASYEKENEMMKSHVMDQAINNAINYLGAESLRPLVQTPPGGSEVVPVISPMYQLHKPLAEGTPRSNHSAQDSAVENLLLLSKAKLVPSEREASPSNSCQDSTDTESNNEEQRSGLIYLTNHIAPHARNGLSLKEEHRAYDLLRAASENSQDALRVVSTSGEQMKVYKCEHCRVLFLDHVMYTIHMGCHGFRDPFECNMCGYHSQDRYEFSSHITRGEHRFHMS
T2 sequence (Q96SW2 whole entry): as the sequence (Q96SW2 whole entry) above
T2 sequence (Q16531 whole entry partner): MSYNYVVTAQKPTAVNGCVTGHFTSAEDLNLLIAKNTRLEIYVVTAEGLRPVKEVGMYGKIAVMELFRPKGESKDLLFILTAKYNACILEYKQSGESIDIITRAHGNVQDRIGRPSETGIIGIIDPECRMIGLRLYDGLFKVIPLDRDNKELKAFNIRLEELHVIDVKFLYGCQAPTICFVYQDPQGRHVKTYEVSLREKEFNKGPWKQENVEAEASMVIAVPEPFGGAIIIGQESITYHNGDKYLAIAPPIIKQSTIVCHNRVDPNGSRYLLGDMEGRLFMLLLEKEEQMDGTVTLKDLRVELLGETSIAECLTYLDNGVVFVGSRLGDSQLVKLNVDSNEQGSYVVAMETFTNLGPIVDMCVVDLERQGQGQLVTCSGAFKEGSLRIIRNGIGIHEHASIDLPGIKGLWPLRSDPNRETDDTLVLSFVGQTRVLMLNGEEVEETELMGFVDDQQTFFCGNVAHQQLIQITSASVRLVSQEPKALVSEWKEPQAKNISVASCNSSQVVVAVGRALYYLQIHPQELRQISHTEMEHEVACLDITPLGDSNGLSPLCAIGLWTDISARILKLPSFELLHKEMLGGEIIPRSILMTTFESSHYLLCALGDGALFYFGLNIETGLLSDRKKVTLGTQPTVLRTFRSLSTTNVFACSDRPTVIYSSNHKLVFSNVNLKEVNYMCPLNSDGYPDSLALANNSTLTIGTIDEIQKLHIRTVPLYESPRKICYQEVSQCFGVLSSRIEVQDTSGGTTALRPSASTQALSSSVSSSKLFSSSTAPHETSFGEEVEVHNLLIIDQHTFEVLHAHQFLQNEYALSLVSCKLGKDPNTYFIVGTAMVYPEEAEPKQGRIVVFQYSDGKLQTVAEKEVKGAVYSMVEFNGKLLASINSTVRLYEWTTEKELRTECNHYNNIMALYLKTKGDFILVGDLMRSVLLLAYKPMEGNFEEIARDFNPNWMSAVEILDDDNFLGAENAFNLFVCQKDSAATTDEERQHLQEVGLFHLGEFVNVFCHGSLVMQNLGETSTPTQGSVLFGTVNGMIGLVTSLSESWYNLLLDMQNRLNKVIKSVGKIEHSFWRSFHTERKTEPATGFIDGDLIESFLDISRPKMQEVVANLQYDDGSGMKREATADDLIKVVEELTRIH
T4 sequence (Q9UKT9 whole entry): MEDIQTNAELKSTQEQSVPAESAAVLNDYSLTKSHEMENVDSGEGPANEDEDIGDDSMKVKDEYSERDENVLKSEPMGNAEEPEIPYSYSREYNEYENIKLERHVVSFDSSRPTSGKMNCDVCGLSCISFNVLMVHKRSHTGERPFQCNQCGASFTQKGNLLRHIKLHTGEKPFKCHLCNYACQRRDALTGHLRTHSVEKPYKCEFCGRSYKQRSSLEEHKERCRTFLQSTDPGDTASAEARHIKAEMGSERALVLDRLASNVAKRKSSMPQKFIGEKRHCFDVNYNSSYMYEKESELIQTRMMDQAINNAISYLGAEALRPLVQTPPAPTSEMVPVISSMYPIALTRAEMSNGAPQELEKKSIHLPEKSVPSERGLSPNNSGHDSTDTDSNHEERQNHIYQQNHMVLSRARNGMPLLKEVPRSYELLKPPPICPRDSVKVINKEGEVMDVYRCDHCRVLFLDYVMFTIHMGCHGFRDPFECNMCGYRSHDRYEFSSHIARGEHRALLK
T4 sequence (Q96SW2 whole entry): as the sequence (Q96SW2 whole entry) above
T4 sequence (Q16531 whole entry partner): as the sequence (Q16531 whole entry partner) above
T1 sequence (P30291 whole entry): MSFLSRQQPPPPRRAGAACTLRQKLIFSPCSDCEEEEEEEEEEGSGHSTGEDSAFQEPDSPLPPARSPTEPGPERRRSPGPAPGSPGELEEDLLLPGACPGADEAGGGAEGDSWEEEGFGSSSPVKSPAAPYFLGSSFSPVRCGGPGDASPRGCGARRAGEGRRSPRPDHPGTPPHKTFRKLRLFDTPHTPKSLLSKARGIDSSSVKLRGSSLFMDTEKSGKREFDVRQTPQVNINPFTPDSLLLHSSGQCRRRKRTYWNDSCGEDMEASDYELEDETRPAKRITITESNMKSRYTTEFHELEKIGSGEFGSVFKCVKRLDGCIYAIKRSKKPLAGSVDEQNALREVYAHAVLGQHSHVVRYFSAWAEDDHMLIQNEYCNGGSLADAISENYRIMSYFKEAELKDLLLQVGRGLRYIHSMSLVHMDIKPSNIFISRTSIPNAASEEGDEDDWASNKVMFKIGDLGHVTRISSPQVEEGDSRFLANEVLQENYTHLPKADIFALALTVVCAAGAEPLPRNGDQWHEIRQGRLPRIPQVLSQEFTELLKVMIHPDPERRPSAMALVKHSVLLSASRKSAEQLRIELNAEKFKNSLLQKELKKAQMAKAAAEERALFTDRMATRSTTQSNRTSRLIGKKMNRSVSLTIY
T1 sequence (Q96SW2 whole entry): as the sequence (Q96SW2 whole entry) above
T1 sequence (Q16531 whole entry partner): as the sequence (Q16531 whole entry partner) above
T6 sequence (P15170 whole entry): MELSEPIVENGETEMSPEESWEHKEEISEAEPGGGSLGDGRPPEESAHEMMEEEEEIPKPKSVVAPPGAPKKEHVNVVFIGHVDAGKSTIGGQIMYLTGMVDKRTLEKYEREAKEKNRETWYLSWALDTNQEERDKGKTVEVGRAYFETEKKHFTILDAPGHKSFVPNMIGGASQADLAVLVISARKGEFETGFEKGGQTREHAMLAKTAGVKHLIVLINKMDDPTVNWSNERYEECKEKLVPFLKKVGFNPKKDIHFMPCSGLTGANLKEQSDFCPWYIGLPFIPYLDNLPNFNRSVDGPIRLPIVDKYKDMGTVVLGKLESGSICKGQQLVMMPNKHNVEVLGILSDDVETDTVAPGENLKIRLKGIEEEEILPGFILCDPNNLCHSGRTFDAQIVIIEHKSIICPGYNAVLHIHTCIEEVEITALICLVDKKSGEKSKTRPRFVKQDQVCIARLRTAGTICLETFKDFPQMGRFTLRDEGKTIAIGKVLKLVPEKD
T6 sequence (Q96SW2 whole entry): as the sequence (Q96SW2 whole entry) above
T6 sequence (Q16531 whole entry partner): as the sequence (Q16531 whole entry partner) above
T3 sequence (Q9UKS7 whole entry): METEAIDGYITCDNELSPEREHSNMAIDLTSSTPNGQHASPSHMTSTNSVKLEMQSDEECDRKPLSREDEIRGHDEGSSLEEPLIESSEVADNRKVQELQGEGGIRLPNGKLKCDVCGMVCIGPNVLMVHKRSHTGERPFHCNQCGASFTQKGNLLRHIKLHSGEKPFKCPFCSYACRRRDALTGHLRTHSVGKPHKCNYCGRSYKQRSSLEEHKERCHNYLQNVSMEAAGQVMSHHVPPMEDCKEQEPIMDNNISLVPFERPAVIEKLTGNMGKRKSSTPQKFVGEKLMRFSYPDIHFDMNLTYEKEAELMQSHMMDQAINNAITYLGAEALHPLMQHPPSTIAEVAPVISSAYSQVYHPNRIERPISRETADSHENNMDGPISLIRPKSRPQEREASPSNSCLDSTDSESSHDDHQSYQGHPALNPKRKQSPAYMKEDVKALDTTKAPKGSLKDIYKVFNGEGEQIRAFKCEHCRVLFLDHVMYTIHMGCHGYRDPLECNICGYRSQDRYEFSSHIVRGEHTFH
T3 sequence (Q96SW2 whole entry): as the sequence (Q96SW2 whole entry) above
T3 sequence (Q16531 whole entry partner): as the sequence (Q16531 whole entry partner) above

| Compound | Weel substrate protein remaining % (WEE1) | IKZF 1 substrate protein remaining % (IKZF1) | IKZF2 substrate protein remaining % (IKZF2) | IKZF3 substrate protein remaining % (IKZF3) | CK1a substrate protein remaining % (CK1α) | GSPT1 substrate protein remaining % (GSPT1) | pIC50 [1] |
| --- | --- | --- | --- | --- | --- | --- | --- |
| O=C1CCC(N2Cc3cc(CN4CCC(c5ncnc6scc(-c7ccccc7)c56)CC4)ccc3C2=O)C(=O)N1 (stereo not shown) [GT-04995, 3-(1-oxo-5-((4-(5-phenylthieno[2,3-d]pyrimidin-4-yl)piperidin-1-yl)methyl)isoindolin-2-yl)piperidine-2,6-dione] | A (0% ≤ substrate protein remaining % ≤ 80%) | A (0% ≤ substrate protein remaining % ≤ 80%) | A (0% ≤ substrate protein remaining % ≤ 80%) | A (0% ≤ substrate protein remaining % ≤ 80%) | B (80%< substrate protein remaining %≤ 100%) | B (80%< substrate protein remaining %≤ 100%) | > 6.30 |
| O=C1CCC(N2Cc3cc(CN4CCN(c5ncnc6sc7c(c56)CCC7)CC4)ccc3C2=O)C(=O)N1 (stereo not shown) [GT-04996, 3-(5-((4-(6,7-dihydro-5H-cyclopenta[4,5]thieno[2,3-d]pyrimidin-4-yl)piperazin-1-yl)methyl)-1-oxoisoindolin-2-yl)piperidine-2,6-dione] | A (0% ≤ substrate protein remaining % ≤ 80%) | A (0% ≤ substrate protein remaining % ≤ 80%) | A (0% ≤ substrate protein remaining % ≤ 80%) | A (0% ≤ substrate protein remaining % ≤ 80%) | A (0% ≤ substrate protein remaining % ≤ 80%) | A (0% ≤ substrate protein remaining % ≤ 80%) | > 6.30 |
| Cc1sc2ncnc(C3CCN(Cc4ccc5c(c4)CN(C4CCC(=O)NC4=O)C5=O)CC3)c2c1C (stereo not shown) [GT-05034, 3-(5-((4-(5,6-dimethylthieno[2,3-d]pyrimidin-4-yl)piperidin-1-yl)methyl)-1-oxoisoindolin-2-yl)piperidine-2,6-dione] | B (80%< substrate protein remaining %≤ 100%) | A (0% ≤ substrate protein remaining % ≤ 80%) | A (0% ≤ substrate protein remaining % ≤ 80%) | A (0% ≤ substrate protein remaining % ≤ 80%) | A (0% ≤ substrate protein remaining % ≤ 80%) | A (0% ≤ substrate protein remaining % ≤ 80%) | > 6.30 |
| Cc1nc(C2=CCN(Cc3ccc4c(c3)CN(C3CCC(=O)NC3=O)C4=O)CC2)c2c(-c3ccccc3)csc2n1 (stereo not shown) [GT-05102, 3-(5-((4-(2-methyl-5-phenylthieno[2,3-d]pyrimidin-4-yl)-3,6-dihydropyridin-1(2H)-yl)methyl)-1-oxoisoindolin-2-yl)piperidine-2,6-dione] | A (0% ≤ substrate protein remaining % ≤ 80%) | A (0% ≤ substrate protein remaining % ≤ 80%) | A (0% ≤ substrate protein remaining % ≤ 80%) | B (80%< substrate protein remaining %≤ 100%) | B (80%< substrate protein remaining %≤ 100%) | A (0% ≤ substrate protein remaining % ≤ 80%) | > 6.30 |
| Cc1nc(N2CCN(Cc3ccc4c(c3)CN(C3CCC(=O)NC3=O)C4=O)CC2)c2c3c(sc2n1)CCC3 (stereo not shown) [GT-05157, 3-(5-((4-(2-methyl-6,7-dihydro-5H-cyclopenta[4,5]thieno[2,3-d]pyrimidin-4-yl)piperazin-1-yl)methyl)-1-oxoisoindolin-2-yl)piperidine-2,6-dione] | B (80%< substrate protein remaining %≤ 100%) | A (0% ≤ substrate protein remaining % ≤ 80%) | A (0% ≤ substrate protein remaining % ≤ 80%) | A (0% ≤ substrate protein remaining % ≤ 80%) | A (0% ≤ substrate protein remaining % ≤ 80%) | A (0% ≤ substrate protein remaining % ≤ 80%) | > 6.30 |
| Cc1nc(C2CCN(Cc3ccc4c(c3)CN(C3CCC(=O)NC3=O)C4=O)CC2)c2c(-c3ccccc3)csc2n1 (stereo not shown) [GT-05158, 3-(5-((4-(2-methyl-5-phenylthieno[2,3-d]pyrimidin-4-yl)piperidin-1-yl)methyl)-1-oxoisoindolin-2-yl)piperidine-2,6-dione] | B (80%< substrate protein remaining %≤ 100%) | B (80%< substrate protein remaining %≤ 100%) | A (0% ≤ substrate protein remaining % ≤ 80%) | A (0% ≤ substrate protein remaining % ≤ 80%) | B (80%< substrate protein remaining %≤ 100%) | A (0% ≤ substrate protein remaining % ≤ 80%) | > 6.30 |
| O=C1CCC(N2Cc3cc(CN4CCC(c5ncnc6sc(-c7ccccc7)cc56)CC4)ccc3C2=O)C(=O)N1 (stereo not shown) [GT-05159, 3-(1-oxo-5-((4-(6-phenylthieno[2,3-d]pyrimidin-4-yl)piperidin-1-yl)methyl)isoindolin-2-yl)piperidine-2,6-dione] | B (80%< substrate protein remaining %≤ 100%) | A (0% ≤ substrate protein remaining % ≤ 80%) | A (0% ≤ substrate protein remaining % ≤ 80%) | A (0% ≤ substrate protein remaining % ≤ 80%) | B (80%< substrate protein remaining %≤ 100%) | A (0% ≤ substrate protein remaining % ≤ 80%) | > 6.30 |
| O=C1CCC(N2Cc3cc(CN4CCN(c5ncnc6sc7c(c56)CCCC7)CC4)ccc3C2=O)C(=O)N1 (stereo not shown) [GT-05209, 3-(1-oxo-5-((4-(5,6,7,8-tetrahydrobenzo[4,5]thieno[2,3-d]pyrimidin-4-yl)piperazin-1-yl)methyl)isoindolin-2-yl)piperidine-2,6-dione] | A (0% ≤ substrate protein remaining % ≤ 80%) | A (0% ≤ substrate protein remaining % ≤ 80%) | A (0% ≤ substrate protein remaining % ≤ 80%) | A (0% ≤ substrate protein remaining % ≤ 80%) | B (80%< substrate protein remaining %≤ 100%) | B (80%< substrate protein remaining %≤ 100%) | > 6.30 |
| Cc1nc(C2CCN(Cc3ccc4c(c3)CN(C3CCC(=O)NC3=O)C4=O)CC2)c2c3c(sc2n1)CCC3 (stereo not shown) [GT-05210, 3-(5-((4-(2-methyl-6,7-dihydro-5H-cyclopenta[4,5]thieno[2,3-d]pyrimidin-4-yl)piperidin-1-yl)methyl)-1-oxoisoindolin-2-yl)piperidine-2,6-dione] | A (0% ≤ substrate protein remaining % ≤ 80%) | A (0% ≤ substrate protein remaining % ≤ 80%) | A (0% ≤ substrate protein remaining % ≤ 80%) | A (0% ≤ substrate protein remaining % ≤ 80%) | A (0% ≤ substrate protein remaining % ≤ 80%) | B (80%< substrate protein remaining %≤ 100%) | 6.00 to 6.30 |
| O=C1CCC(N2Cc3cc(CN4CCC(c5ncnc6sc7c(c56)CCCC7)CC4)ccc3C2=O)C(=O)N1 (stereo not shown) [GT-05265, 3-(1-oxo-5-((4-(5,6,7,8-tetrahydrobenzo[4,5]thieno[2,3-d]pyrimidin-4-yl)piperidin-1-yl)methyl)isoindolin-2-yl)piperidine-2,6-dione] | B (80%< substrate protein remaining %≤ 100%) | A (0% ≤ substrate protein remaining % ≤ 80%) | A (0% ≤ substrate protein remaining % ≤ 80%) | A (0% ≤ substrate protein remaining % ≤ 80%) | A (0% ≤ substrate protein remaining % ≤ 80%) | A (0% ≤ substrate protein remaining % ≤ 80%) | > 6.30 |
